# Measured values taken from ChEMBL document CHEMBL5154929, “Optimization of the Natural Product Calothrixin A to Discover Novel Dual Topoisomerase I and II Inhibitors with Improved Anticancer Activity” (J Med Chem, 2022).
# Activity calls are given as the source filed them. The rule behind the calls is not given here.
# Columns and labels:
# [1] = system: HCT-116; test: Cytotoxicity against human HCT-116 cells expressing high level of topoisomerase I/II measured after 72 hrs by MTT assay; format: functional, cell-based; conditions: HCT-116, 72 h
# [2] = system: A-375; test: (§1) In vivo induction of apoptosis in human A-375 cells xenografted in BALB/c nude mouse treated after 7 days of tumor implantation on right flank subcutaneously at 10 mg/kg, iv administered once per 2 days for 14 days by measuring TUNEL positive cells under a light microscope; format: functional, organism-based; conditions: time 14.0 day
# [3] = system: A-375; test: as §1, with “mouse assessed as increase in C-caspase-3 level” for “mouse”; format: functional, organism-based; conditions: time 14.0 day
# [4] = system: A-375; test: In vivo antitumor activity against human A-375 cells xenografted in BALB/c nude mouse assessed as decrease in tumor weight treated after 7 days of tumor implantation on right flank subcutaneously at 10 mg/kg, iv administered once per 2 days for 14 days measured once every two days; format: functional, organism-based; conditions: time 14.0 day
# [5] = system: A-375; test: In vivo antitumor activity against human A-375 cells xenografted in BALB/c nude mouse assessed as shrinkage of tumor tissue treated after 7 days of tumor implantation on right flank subcutaneously at 10 mg/kg, iv administered once per 2 days for 14 days measured once every two days; format: functional, organism-based; conditions: time 14.0 day
# [6] = Cmax in Kunming mouse plasma at 10 mg/kg, iv administered as single dose measured after 5 to 360 mins by HPLC analysis; format: ADME, organism-based; set-up: dose 10 mg/kg, time upper 360 min, time lower 5 min, route iv
# [7] = Microsomal stability in mouse liver microsomes assessed as half life measured at 2 ug/ml upto 60 mins in presence of NADPH generating system and UGT incubation system by phase II metabolic stability kit method; format: ADME, Microsome; conditions: dose 2 µg/ml
# [8] = Clearance in Kunming mouse plasma at 10 mg/kg, iv administered as single dose measured after 5 to 360 mins by HPLC analysis; format: ADME, organism-based; conditions: time 5-360 min
# [9] = system: MCF7; test: Cytotoxicity against human MCF7 cells expressing high level of topoisomerase I/II measured after 72 hrs by MTT assay; format: functional, cell-based; conditions: MCF7, 72 h
# [10] = Half life in Kunming mouse plasma at 10 mg/kg, iv administered as single dose measured after 5 to 360 mins by HPLC analysis; format: ADME, organism-based; conditions: time 5-360 min
# [11] = Tmax in Kunming mouse plasma at 10 mg/kg, iv administered as single dose measured after 5 to 360 mins by HPLC analysis; format: ADME, organism-based; conditions: time 5-360 min
# [12] = Volume of distribution in Kunming mouse plasma at 10 mg/kg, iv administered as single dose measured after 5 to 360 mins by HPLC analysis; format: ADME, organism-based; conditions: time 5-360 min
# [13] = Toxicity in BALB/c nude mouse xenografted with human A-375 cells assessed as tolerability treated after 7 days of tumor implantation on right flank subcutaneously at 10 mg/kg, iv administered once per 2 days for 14 days measured once every two days; format: organism-based; conditions: in vivo, 336 h, time 14 day
# [14] = Toxicity in BALB/c nude mouse xenografted with human A-375 cells assessed as body weight loss treated after 7 days of tumor implantation on right flank subcutaneously at 10 mg/kg, iv administered once per 2 days for 14 days measured once every two days; format: organism-based; conditions: in vivo, 336 h, time 14 day
# [15] = system: A-375; test: Induction of cell cycle arrest in human A-375 cells assessed as accumulation of cells at S phase at 80 nM incubated for 24 hrs by PI based flow cytometric analysis (RVB = 26.73%); format: functional
# [16] = system: HCT-116; test: Antiproliferative activity against doxorubicin resistant human HCT-116 cells measured after 72 hrs by MTT assay; format: functional, cell-based; conditions: HCT-116, 72 h
# [17] = system: A-375; test: Induction of cell cycle arrest in human A-375 cells assessed as accumulation of cells at G2 phase at 80 nM incubated for 24 hrs by PI based flow cytometric analysis (RVB = 20.34%); format: functional
# [18] = system: A-375; test: Cytotoxicity against human A-375 cells expressing high level of topoisomerase I/II measured after 72 hrs by MTT assay; format: functional, cell-based; conditions: A-375, 72 h
# [19] = system: MDA-MB-231; test: Cytotoxicity against human MDA-MB-231 cells expressing high level of topoisomerase I/II measured after 72 hrs by MTT assay; format: functional, cell-based; conditions: MDA-MB-231, 72 h
# [20] = system: HCT-116; test: Antiproliferative activity against doxorubicin sensitive human HCT-116 cells measured after 72 hrs by MTT assay; format: functional, cell-based; conditions: HCT-116, 72 h
# [21] = Selectivity index, ratio of IC50 for human L02 cells to IC50 for human A-375 cells; format: toxicity; conditions: L02 cells and A-375 cells, read-out: Ratio IC50
# [22] = AUC in Kunming mouse plasma at 10 mg/kg, iv administered as single dose measured after 5 to 360 mins by HPLC analysis; format: ADME, organism-based; set-up: time upper 360 min, time lower 5 min, dose 10 mg/kg, route iv
# [23] = system: A-375; test: Induction of cell cycle arrest in human A-375 cells assessed as accumulation of cells at G1 phase at 80 nM incubated for 24 hrs by PI based flow cytometric analysis (RVB = 52.94%); format: functional
# [24] = system: A549; test: Cytotoxicity against human A549 cells expressing high level of topoisomerase I/II measured after 72 hrs by MTT assay; format: functional, cell-based; conditions: A549, 72 h
# [25] = system: SH-SY5Y; test: Cytotoxicity against human SH-SY5Y cells expressing low level of topoisomerase I/II measured after 72 hrs by MTT assay; format: functional, cell-based
# [26] = Microsomal stability in mouse liver microsomes assessed as clearance measured at 2 ug/ml upto 60 mins in presence of NADPH generating system and UGT incubation system by phase II metabolic stability kit method; format: ADME, Microsome; conditions: dose 2 µg/ml, read-out: CLH
# [27] = Cytotoxicity against human HEK293T cells measured after 72 hrs by MTT assay; format: toxicity, cell-based, HEK-293T
# [28] = Cytotoxicity against human L02 cells measured after 72 hrs by MTT assay; format: toxicity, cell-based
# [29] = system: A-375; test: as §1, with “mouse assessed as […]” for “mouse”; format: functional, organism-based; conditions: time 14.0 day
# [30] = Metabolic stability in mouse plasma upto 5 hrs by HPLC-UV analysis; format: ADME, cell-free
smiles,measurement,setting,value
COc1cc([C@@H]2c3cc4c(cc3[C@@H](O[C@@H]3O[C@@H]5CO[C@@H](C)O[C@H]5[C@H](O)[C@H]3O)[C@H]3COC(=O)[C@H]23)OCO4)cc(OC)c1O [ETOPOSIDE],IC50,[1],380 nM
same,Activity,[2],Active
same,Activity,[3],Active
same,Activity,[4],Active
same,Activity,[5],Active
same,Cmax,[6],17700 ng/mL
same,half-life at 2 ug/ml,[7],21 min
same,clearance,[8],7 mL/min/kg
same,IC50,[9],790 nM
same,half-life,[10],45 min
same,Tmax,[11],5 min
same,Vd,[12],0.432 L/kg
same,Activity,[13],Toxic
same,Activity,[14],Toxic
same,Activity,[15],31.79%
same,IC50,[16],3520 nM
same,Activity,[17],12.07%
same,IC50,[18],280 nM
same,IC50,[19],510 nM
same,IC50,[20],370 nM
same,selectivity ratio,[21],< 5
same,AUC,[22],6830 ng·h/mL
same,Activity,[23],56.15%
same,IC50,[24],600 nM
same,IC50,[25],890 nM
same,microsomal CLint at 2 ug/ml,[26],66 µL/min/mg
same,IC50 at 72 h,[27],1390 nM
same,IC50 at 72 h,[28],1220 nM
same,Activity,[29],Active
same,Stability,[30],Stable
